For assay [1], the target named is IRAK4 (Homo sapiens (Human), UniProt Q9NWZ3). Kind of assay: IRAK4 Inhibition Assay. The conditions noted are these: ATP 500 μM; IRAK4 0.6 nM; 60 min at room temperature. The class given is biochemical. As to the method:
The assays were performed in U-bottom 384-well plates. The final assay volume was 30 μL prepared from 15 μL additions of enzyme and substrates (fluoresceinated peptide and ATP) and test compounds in assay buffer (20 mM HEPES pH 7.2, 10 mM MgCl2, 0.015% Brij 35 and 4 mM DTT). The reaction was initiated by the combination of IRAK4 with substrates and test compounds. The reaction mixture was incubated at room temperature for 60 min. and terminated by adding 45 μL of 35 mM EDTA to each sample. The reaction mixture was analyzed on the Caliper LABCHIP® 3000 (Caliper, Hopkinton, Mass.) by electrophoretic separation of the fluorescent substrate and phosphorylated product. Inhibition data were calculated by comparison to no enzyme control reactions for 100% inhibition and vehicle-only reactions for 0% inhibition. The final concentrations of reagents in the assays are ATP, 500 μM; FL-IPTSPITTTYFFFKKK peptide 1.5 μM; IRAK4, 0.6 nM; and DMSO, 1.6%.

The subject of assay [2] is IL-6 levels in human whole blood stimulated with a TLR2 agonist. Description: IRAK4 Whole Blood Assay (TLR2 agonist lipoteichoic acid-stimulated IL-6). The class given is cell-based. The conditions noted are these: 10 μg/mL lipoteichoic acid, 5 hours, IL-6 readout. The method, then: Human whole blood containing the anti-coagulant ACD-A was plated in 384-well plate (25 μL/well) and incubated with compounds for 60 minutes at 37° C. in a 5% CO2 incubator. The blood was stimulated with a TLR2 agonist, 10 μg/mL final concentration of lipoteichoic acid (Invivogen, San Diego, Calif.) in 25 μL RPMI (Gibco) for 5 hours in a 5% CO2 incubator. At the end of the incubation, plates were centrifuged at 2300 rpm for 5 minutes. Supernatants were harvested and analyzed for IL-6 levels by Flow Cytometry beads assay (BD Biosciences, San Jose, Calif.).

Bounds are passed on as bounds.

Sequence of IRAK4 (Q9NWZ3 whole entry): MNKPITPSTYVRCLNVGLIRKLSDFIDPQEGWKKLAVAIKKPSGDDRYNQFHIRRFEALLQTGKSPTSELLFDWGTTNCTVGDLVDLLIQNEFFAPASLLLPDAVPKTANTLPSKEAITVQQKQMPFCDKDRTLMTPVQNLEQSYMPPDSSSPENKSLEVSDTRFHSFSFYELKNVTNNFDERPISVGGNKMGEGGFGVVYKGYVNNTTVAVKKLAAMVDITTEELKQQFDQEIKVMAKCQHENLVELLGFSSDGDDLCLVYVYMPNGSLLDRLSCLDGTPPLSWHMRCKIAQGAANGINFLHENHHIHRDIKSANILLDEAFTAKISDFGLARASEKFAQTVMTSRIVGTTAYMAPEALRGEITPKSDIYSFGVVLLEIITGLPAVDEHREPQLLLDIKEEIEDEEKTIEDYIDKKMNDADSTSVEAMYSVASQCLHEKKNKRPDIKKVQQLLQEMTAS

The term IC50 denotes the concentration at which inhibition is half-maximal. As for `CCC1C[C@@H](COc2csc3cc(C(N)=O)c(OC)nc23)NC1=O` (single isomer, unassigned) [Example 15], the IC50 in assay [1] was 63.4 nM.
As to `COc1nc2c(OC[C@@H]3CC(C)C(=O)N3)csc2cc1C(N)=O` (single isomer, unassigned) [Example 13], in assay [1], the IC50 came to 36.2 nM.
As a reminder, the EC50 is the concentration at which the effect is half-maximal. A lower EC50 goes with an effect from little substance. `CC[C@@H]1CC(=O)N[C@@H]1COc1csc2cc(C(N)=O)c(OC3CC3)nc12` [Example 20, 5-cyclopropoxy-3-(((2S,3R)-3-ethyl-5-oxopyrrolidin-2-yl)methoxy)thieno[3,2-b]pyridine-6-carboxamide]: a half-maximal effect in assay [2] (EC50) was put at 473 nM. For the same molecule, the IC50 in assay [1] came out at 19.1 nM.
For `CC[C@@H]1[C@H](F)C(=O)N[C@@H]1COc1csc2cc(C(N)=O)c(OC3CC3)nc12` [Example 24, 5-cyclopropoxy-3-(((2S,3S,4S)-3-ethyl-4-fluoro-5-oxopyrrolidin-2-yl)methoxy)thieno[3,2-b]pyridine-6-carboxamide], in that order: greater than 10000 nM and 20.2 nM.
Turning to `CCC1C[C@@H](COc2csc3cc(C(N)=O)c(OC)nc23)NC1=O` (single isomer, unassigned) [Example 16], the IC50 in assay [1] stood at 98.1 nM.
In assay [2], `COc1nc2c(OC[C@H]3NC(=O)C[C@H]3C)csc2cc1C(N)=O` [Example 17, 5-methoxy-3-(((2S,3R)-3-methyl-5-oxopyrrolidin-2-yl)methoxy)thieno[3,2-b]pyridine-6-carboxamide] returned an EC50 of 893 nM. In assay [1], the IC50 turned out to be 6 nM.
For `COc1nc2c(OC[C@H]3NC(=O)[C@H](F)[C@H]3C3CC3)csc2cc1C(N)=O` [Example 18, 3-(((2S,3S,4R)-3-cyclopropyl-4-fluoro-5-oxopyrrolidin-2-yl)methoxy)-5-methoxythieno[3,2-b]pyridine-6-carboxamide], in that order: 962 nM and 2.8 nM.
Regarding `COc1nc2c(OCC3COCC(=O)N3)csc2cc1C(N)=O` (racemic) [Example 7, 5-methoxy-3-((5-oxomorpholin-3-yl)methoxy)thieno[3,2-b]pyridine-6-carboxamide], in assay [1], the IC50 stood at 615 nM.
Consider `COc1cc2c(OC[C@@H]3CCC(=O)N3)csc2nc1C(N)=O` [Example 3, (S)-5-Methoxy-3-((5-oxopyrrolidin-2-yl)methoxy)thieno[2,3-b]pyridine-6-carboxamide], for which the IC50 in assay [1] came to 558 nM.
Molecule `COc1nc2c(OC[C@@H]3C[C@@H](F)C(=O)N3)csc2cc1C(N)=O` [Example 11, 3-(((2S,4R)-4-fluoro-5-oxopyrrolidin-2-yl)methoxy)-5-methoxythieno[3,2-b]pyridine-6-carboxamide] came in with an EC50 in assay [2] of 473 nM. Further, the IC50 in assay [1] worked out at 4 nM.
In turn, `COc1nc2c(OC[C@@H]3CCC(=O)N3)csc2cc1C(N)=O` [Example 5, (S)-5-methoxy-3-((5-oxopyrrolidin-2-yl)methoxy)thieno[3,2-b]pyridine-6-carboxamide] displayed an EC50 in assay [2] of 2010 nM. In assay [1], the IC50 was 20.3 nM.
Take `CC[C@@H]1[C@H](F)C(=O)N[C@@H]1COc1c(C)sc2cc(C(N)=O)c(OC)nc12` [Example 22, 3-(((2S,3S,4S)-3-ethyl-4-fluoro-5-oxopyrrolidin-2-yl)methoxy)-5-methoxy-2-methylthieno[3,2-b]pyridine-6-carboxamide]: in assay [1], the IC50 stood at 33.6 nM.
In turn, `CC[C@@H]1CC(=O)N[C@@H]1COc1csc2cc(C(N)=O)c(OC)cc12` [Example 29] showed an EC50 in assay [2] of 363 nM. Besides, the IC50 in assay [1] was found to be 0.9 nM.
As to “3-(46S,7R)-7-ethyl-4-oxo-5-azaspiro[2.4]heptan-6-yl)methoxy)-5-methoxythieno[3,2-b]pyridine-6-carboxamide [Example 9]”, in assay [1], the IC50 came to 130 nM.
The same measure, in the same setting: in the case of `COc1nc2c(OC[C@@H]3CC(C)C(=O)N3)csc2cc1C(N)=O` (single isomer, unassigned) [Example 14] it was 459 nM; in that of `COc1nc2c(OC[C@@H]3CCC(=O)N3)c(C)sc2cc1C(N)=O` [Example 25, (S)-5-methoxy-2-methyl-3-((5-oxopyrrolidin-2-yl)methoxy)thieno[3,2-b]pyridine-6-carboxamide], 128 nM.

For the origin of these results see patent publication US10829496B2, “Thienopyridines and benzothiophenes useful as IRAK4 inhibitors” (BRISTOL-MYERS SQUIBB COMPANY, priority 2017, dated 2020).
